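These data come from cells grown in 96-well plates and exposed to compound for 48 hours at five concentrations. TGI is the concentration that stops growth completely.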
Columns and labels:
Assay in all cases: inhibition of tumour cell growth, NCI panel, 48 h
KM12 colon = test system: KM12 colon
MDA-N = test system: MDA-N
CAKI-1 renal = test system: CAKI-1 renal
MCF7 breast = test system: MCF7 breast
SW-620 colon = test system: SW-620 colon
A549 NSCLC = test system: A549 NSCLC
SNB-19 CNS = test system: SNB-19 CNS
CCRF-CEM leukemia = test system: CCRF-CEM leukemia
OVCAR-5 ovarian = test system: OVCAR-5 ovarian
EKVX NSCLC = test system: EKVX NSCLC

Row | Structure (SMILES) | TGI (KM12 colon) [µM] | TGI (MDA-N) [µM] | TGI (CAKI-1 renal) [µM] | TGI (MCF7 breast) [µM] | TGI (SW-620 colon) [µM] | TGI (A549 NSCLC) [µM] | TGI (SNB-19 CNS) [µM] | TGI (CCRF-CEM leukemia) [µM] | TGI (OVCAR-5 ovarian) [µM] | TGI (EKVX NSCLC) [µM]
1 | O=c1oc2ccc(Cl)cc2cc1-c1cn2cc(Cl)ccc2n1 | > 58.6 | 2.79 | > 100 | 6.37 | > 100 | > 87.8 | > 27.1 | > 100 | > 100 | > 100
2 | Cc1ccc(C(=O)/C(C#N)=C/Nc2c(C)n(C)n(-c3ccccc3)c2=O)cc1 | > 100 | > 100 | > 100 | > 100 | > 100 | > 100 | > 100 | > 100 | > 100 | > 100
3 | CCOC(=O)C(/C=N\C(=S)Nc1ccc(OCC)cc1)=C(/O)c1ccccc1 | > 100 | > 100 | > 100 | > 100 | > 100 | > 100 | > 100 | > 100 | > 100 | > 100
4 | O=C1c2cccc3cccc(c23)C(=O)N1CCCNOCCONCCCN1C(=O)c2cccc3cccc(c23)C1=O | > 100 | > 100 | > 100 | > 100 | > 100 | > 100 | > 100 | 91.6 | > 100 | > 100
5 | CC(C)N(C)C(=O)C12C3C4C1C1C2C3C41C#N (stereo not given) | > 100 | > 100 | > 100 | > 100 | > 100 | > 100 | > 100 | > 100 | > 100 | > 100
6 | C[N+](C)(C)c1ncnc2c1ncn2C1CCCCO1 (stereo not given) | > 100 | > 100 | > 100 | > 100 | > 100 | > 100 | > 100 | > 100 | > 100 | > 100
7 | CSC1=NS(=O)(=O)c2cc(C(=O)NN(C)C(=O)c3cc4c(cc3Cl)SC(SC)=NS4(=O)=O)c(Cl)cc2S1 | > 10 | > 10 | > 10 | > 10 | > 10 | > 10 | > 10 | > 10 | > 10 | > 10
8 | CC(=O)N1CCN(C23OC4(N5CCN(C(C)=O)CC5)C5C6CC(C7C6C4C72)C53)CC1 (stereo not given) | > 100 | > 100 | > 100 | > 100 | > 100 | > 100 | > 100 | > 100 | > 100 | > 100
9 | C=C(C)C1CC=C(C)C2(C1)OCC(C)(C)C(C)O2 (stereo not given) | 32.9 | 47.4 | 36.7 | 33.9 | 43.2 | 34.5 | 33.3 | 83.4 | 38.5 | 62.3
10 | O=C1/C(=C2\Sc3c(ccc(Cl)c3Cl)C2=O)Sc2c1ccc(Cl)c2Cl | > 100 | > 100 | > 100 | > 100 | > 100 | > 100 | > 100 | > 100 | > 100 | > 100
11 | COc1cc(C2S/C(=C/c3ccccc3)C(=O)N2c2ccc(Cl)c(Cl)c2)cc(OC)c1OC (stereo not given) | > 70.3 | > 84.9 | > 100 | > 87.7 | > 100 | > 100 | > 100 | > 100 | > 100 | > 100
12 | CC(C)OP(=O)(OC(C)C)C(C(C)C)N(C)/C(F)=N/C(F)(F)F (stereo not given) | > 100 | > 100 | > 100 | > 100 | > 100 | > 100 | > 100 | > 100 | > 100 | > 100
13 | O=c1[nH]c(N/N=C\C(O)C(O)C(O)CO)nc2ccccc12 (stereo not given) | > 100 | > 100 | > 100 | > 100 | > 100 | > 100 | > 100 | > 100 | > 100 | > 100
14 | CCOC(=O)C(CS)NC(=O)CCCCCCCC(=O)NC(CS)C(=O)OCC (stereo not given) | > 100 | > 100 | > 100 | > 100 | > 100 | > 100 | > 100 | > 100 | > 100 | > 100
